Results: patent publication US20040101840A1, “Identification, cloning and characterization of a novel pc-1 gene differentially expressed in prostate cells and tissues” (priority 2003, published 2004)

Experiments:
Assay type in all cases: cell-based, human
[1] = system: D52/N8 gene expression in LNCaP and C4-2 cells; test: Androgen regulation of D52/N8 gene expression in prostate cancer cell lines
Procedure: (§1) Parental LNCaP and its derivative cell lines, C4, C4-2, and C4-2B, were described previously. ARCaP cells, a highly invasive prostate cancer cell line, were generated by our lab from the ascites fluid of a person with Al and aggressive human prostate cancer. […]. To test the effect of androgen in affecting PC-1 gene expression in prostate cancer cell lines, cells were exposed to a synthetic androgen methyltrioenolone (R1881) at a concentration of 0.1, 1, and 10 nM. To assess the specificity of androgen induction of PC-1 gene expression, some of the cells exposed to 10 nM of R1881 were also treated with an antiandrogen Casodex, 10 μM. […]
(§2) First strain cDNA was synthesized from 1 μg of total RNA with a hexamer random primer obtained from Perkin-Elmer using a MMLV reverse transcriptase obtained from Life Technologies, Inc. (Grand Island, N.Y.) according to the manufacturer's instructions. cDNAs obtained were subjected to Taq DNA polymerase PCR reaction under the condition of 94° for 1 minute, 60° for 1 minute, 72° for 45 seconds, or 94° for 1 minute, 53° for 1 minute, and 72° for 1 minute for 30 cycles, and an extension of 72° for 10 minutes. […] The PCR. products were evaluated on a 1% agarose gel and confirmed by Southern blot analysis. […]

[2] = system: PC-1 gene expression in LNCaP and C4-2 cells; test: Antiandrogen blockade of androgen-induced PC-1 gene expression in prostate cancer cell lines
Procedure: as §1, with “[…] The culture was allowed to continue for two days and total cellular RNA was isolated and subjected to RT-PCR and Northern blot analysis for” for “To assess”, “expression” for “specificity of androgen induction”, “gene.” for “gene expression, some of the cells exposed to 10 nM of R1881 were also treated with an antiandrogen Casodex, 10 μM.”
as §2

[3] = system: PC-1 gene expression in C4-2 cells; test: Androgen regulation of PC-1 gene expression in C4-2 cells (RT-PCR and Northern blot); settings: two days exposure
Procedure: (§3) Parental LNCaP and its derivative cell lines, C4, C4-2, and C4-2B, were described previously. ARCaP cells, a highly invasive prostate cancer cell line, were generated by our lab from the ascites fluid of a person with Al and aggressive human prostate cancer. All other cell lines were obtained from ATCC and were cultured in TB containing 5% FBS, as described previously. To test the effect of androgen in affecting PC-1 gene expression in prostate cancer cell lines, cells were exposed to a synthetic androgen methyltrioenolone (R1881) at a concentration of 0.1, 1, and 10 nM. To assess the specificity of androgen induction of PC-1 gene expression, some of the cells exposed to 10 nM of R1881 were also treated with an antiandrogen Casodex, 10 μM. […]
as §2

[4] = system: PC-1 gene expression in LNCaP cells; test: Androgen regulation of PC-1 gene expression in LNCaP cells (RT-PCR and Northern blot); settings: two days exposure
Procedure: as §3, §2

| SMILES | inhibition of D52/N8 expression ([1]; coadministration of R1881 and Casodex) | effect on R1881-increased expression of the PC-1 gene ([2]; coadministration with R1881, Casodex (10 nM) as printed in FIG. 5 legend) | effect on androgen-induced PC-1 gene expression ([2]; coadministration with androgen, LNCaP and C4-2) | concentration at which steady-state levels of PC-1 gene expression are increased [3] | regulation of D52/N8 expression by androgen ([1]; R1881 alone) | concentration required to increase PC-1 gene expression [4] |
| --- | --- | --- | --- | --- | --- | --- |
| CC(O)(CS(=O)(=O)c1ccc(F)cc1)C(=O)Nc1ccc(C#N)c(C(F)(F)F)c1 (stereo not drawn) [Casodex] | nor was its expression inhibited | blocked | effectively terminated | – | – | – |
| C[C@]1(O)CC[C@H]2[C@@H]3CCC4=CC(=O)CCC4=C3C=C[C@@]21C [R1881, methyltrioenolone] | – | – | – | 0.1 nM | not regulated | 1 nM |
